Patent publication US20080009418A1, “Selective Inhibitors” (Alchemia LTD., priority 2004, published 2008)

Experiments:
Human neurokinin (NK1) = target: T1, Human neurokinin (NK1) (Homo sapiens, UniProt P25103); test: Radioligand binding, human neurokinin NK1 membranes, filtration, [125I]-Substance P; details: compound at 10 μM; [125I]-Substance P, filtration
T1 construct: purchased Perkin Elmer Biosignal
How it was run: (§1)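 Membranes from cloned human receptors were incubated with compound and radioligand for 1 hour at room temperature. Bound ligand was collected on 0.3% PEI-soaked filters, washed with cold 50 mM Tris-HCl pH 7.4, and counted by scintillation. Percent inhibition was computed against DMSO totals and reference-ligand nonspecific wells.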

[1] = target: T2, Human neuropeptide Y (NPY-Y1) (Homo sapiens, UniProt P25929); test: Radioligand binding, human neuropeptide Y NPY-Y1 membranes, FlashPlate, [125I]-PYY; details: compound at 10 μM; [125I]-PYY, FlashPlate
T2 construct: purchased Perkin Elmer Biosignal
T2 sequence (P25929 1-384): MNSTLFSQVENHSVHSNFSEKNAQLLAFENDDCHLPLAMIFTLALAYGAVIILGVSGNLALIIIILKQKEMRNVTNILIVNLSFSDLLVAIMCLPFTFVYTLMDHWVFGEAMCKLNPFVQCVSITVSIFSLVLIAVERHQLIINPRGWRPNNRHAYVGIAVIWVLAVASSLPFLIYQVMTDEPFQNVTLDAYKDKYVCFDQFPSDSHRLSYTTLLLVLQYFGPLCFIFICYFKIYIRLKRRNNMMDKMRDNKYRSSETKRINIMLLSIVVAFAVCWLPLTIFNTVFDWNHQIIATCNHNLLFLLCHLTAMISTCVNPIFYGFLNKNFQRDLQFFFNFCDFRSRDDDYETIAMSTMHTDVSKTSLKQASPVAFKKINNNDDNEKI
How it was run: (§2)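 Cloned human receptor membranes were coated onto FlashPlate wells and incubated with radioligand and compound (added from a 0.5 mM DMSO daughter plate) for 1 hour at room temperature in the dark. Scintillation counting gave percent inhibition, with DMSO defining total and reference ligand defining non-specific binding.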

[2] = target: T3, Human melanin-concentrating hormone (MCH1) (Homo sapiens, UniProt Q99705); test: Radioligand binding, human melanin-concentrating hormone MCH1 membranes, FlashPlate, [125I]-S36057; details: compound at 10 μM; [125I]-S36057, FlashPlate
T3 construct: purchased Perkin Elmer Biosignal
T3 sequence (Q99705 whole entry): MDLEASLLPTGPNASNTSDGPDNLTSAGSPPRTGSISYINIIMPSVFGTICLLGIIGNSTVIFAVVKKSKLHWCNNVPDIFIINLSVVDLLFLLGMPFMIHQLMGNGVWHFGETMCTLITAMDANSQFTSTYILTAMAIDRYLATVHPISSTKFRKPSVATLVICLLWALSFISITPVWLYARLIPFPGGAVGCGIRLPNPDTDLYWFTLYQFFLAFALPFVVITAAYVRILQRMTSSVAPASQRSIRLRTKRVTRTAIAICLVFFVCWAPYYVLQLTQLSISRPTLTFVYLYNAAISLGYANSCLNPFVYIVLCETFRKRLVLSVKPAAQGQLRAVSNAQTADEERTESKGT
How it was run: as §2

Human δ-opioid (DOP) = target: T4, Human δ-opioid (DOP) (Homo sapiens, UniProt P41143); test: Radioligand binding, human δ-opioid (DOP) membranes, FlashPlate, [3H]-Bremazocine; details: compound at 10 μM; [3H]-Bremazocine, FlashPlate
T4 construct: purchased Perkin Elmer Biosignal
T4 sequence (P41143 whole entry): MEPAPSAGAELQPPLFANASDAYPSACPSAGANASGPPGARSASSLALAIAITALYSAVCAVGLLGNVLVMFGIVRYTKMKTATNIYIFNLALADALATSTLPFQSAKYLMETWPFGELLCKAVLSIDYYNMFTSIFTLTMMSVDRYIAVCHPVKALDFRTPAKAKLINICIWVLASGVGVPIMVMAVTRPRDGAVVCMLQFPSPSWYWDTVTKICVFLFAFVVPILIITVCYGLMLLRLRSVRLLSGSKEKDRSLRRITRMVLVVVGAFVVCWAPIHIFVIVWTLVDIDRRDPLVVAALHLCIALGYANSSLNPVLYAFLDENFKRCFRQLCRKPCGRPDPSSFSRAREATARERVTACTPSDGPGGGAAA
How it was run: as §2

Human opioid (ORL1) = target: T5, Human opioid (ORL1) (Homo sapiens, UniProt P41146); test: Radioligand binding, human opioid ORL1 membranes, FlashPlate, [125I]-Nociceptin; details: compound at 10 μM; [125I]-Nociceptin, FlashPlate
T5 construct: purchased Perkin Elmer Biosignal
T5 sequence (P41146 whole entry): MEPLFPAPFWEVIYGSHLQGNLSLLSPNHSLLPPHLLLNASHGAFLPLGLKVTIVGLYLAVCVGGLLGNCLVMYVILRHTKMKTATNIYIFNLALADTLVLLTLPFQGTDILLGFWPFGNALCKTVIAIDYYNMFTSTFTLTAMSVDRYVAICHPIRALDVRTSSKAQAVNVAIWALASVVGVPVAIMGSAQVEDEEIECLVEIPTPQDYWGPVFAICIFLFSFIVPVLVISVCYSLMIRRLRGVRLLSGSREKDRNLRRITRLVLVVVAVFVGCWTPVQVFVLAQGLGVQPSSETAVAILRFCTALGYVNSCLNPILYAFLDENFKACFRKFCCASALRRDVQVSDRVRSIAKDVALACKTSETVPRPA
How it was run: as §2

Human Melanocortin (MC4) = target: T6, Human Melanocortin (MC4) (Homo sapiens, UniProt P32245); test: Radioligand binding, human melanocortin MC4 membranes, FlashPlate, [125I]-NDP-αMSH; details: compound at 10 μM; [125I]-NDP-αMSH, FlashPlate
T6 construct: purchased Perkin Elmer Biosignal
T6 sequence (P32245 whole entry): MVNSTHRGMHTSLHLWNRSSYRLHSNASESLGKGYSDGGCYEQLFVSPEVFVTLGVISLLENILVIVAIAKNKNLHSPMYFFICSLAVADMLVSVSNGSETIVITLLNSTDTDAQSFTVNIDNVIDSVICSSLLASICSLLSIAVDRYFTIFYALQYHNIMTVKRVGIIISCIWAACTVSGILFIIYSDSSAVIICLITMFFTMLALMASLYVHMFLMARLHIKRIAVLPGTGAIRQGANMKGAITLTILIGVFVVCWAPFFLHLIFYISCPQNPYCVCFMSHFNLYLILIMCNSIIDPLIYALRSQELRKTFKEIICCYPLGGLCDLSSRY
How it was run: as §2

Human Melanocortin (MC3) = target: T7, Human Melanocortin (MC3) (Homo sapiens, UniProt P41968); test: Radioligand binding, human melanocortin MC3 membranes, FlashPlate, [125I]-NDP-αMSH; details: compound at 10 μM; [125I]-NDP-αMSH, FlashPlate
T7 construct: purchased Perkin Elmer Biosignal
T7 sequence (P41968 whole entry): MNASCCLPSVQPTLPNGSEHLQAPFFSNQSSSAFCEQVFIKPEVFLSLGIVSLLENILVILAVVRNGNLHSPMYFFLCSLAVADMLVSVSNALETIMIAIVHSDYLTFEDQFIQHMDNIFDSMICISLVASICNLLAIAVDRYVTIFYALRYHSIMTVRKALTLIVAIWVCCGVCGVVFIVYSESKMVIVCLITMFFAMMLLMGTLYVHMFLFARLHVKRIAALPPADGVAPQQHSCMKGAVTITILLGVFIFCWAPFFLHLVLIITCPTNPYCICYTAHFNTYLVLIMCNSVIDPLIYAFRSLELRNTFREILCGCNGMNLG
How it was run: as §2

Human μ-opioid (MOP) = target: T8, Human μ-opioid (MOP) (Homo sapiens, UniProt P35372); test: Radioligand binding, human μ-opioid (MOP) membranes, FlashPlate, [3H]-Naloxone; details: compound at 10 μM; [3H]-Naloxone, FlashPlate
T8 construct: purchased Perkin Elmer Biosignal
T8 sequence (P35372 whole entry): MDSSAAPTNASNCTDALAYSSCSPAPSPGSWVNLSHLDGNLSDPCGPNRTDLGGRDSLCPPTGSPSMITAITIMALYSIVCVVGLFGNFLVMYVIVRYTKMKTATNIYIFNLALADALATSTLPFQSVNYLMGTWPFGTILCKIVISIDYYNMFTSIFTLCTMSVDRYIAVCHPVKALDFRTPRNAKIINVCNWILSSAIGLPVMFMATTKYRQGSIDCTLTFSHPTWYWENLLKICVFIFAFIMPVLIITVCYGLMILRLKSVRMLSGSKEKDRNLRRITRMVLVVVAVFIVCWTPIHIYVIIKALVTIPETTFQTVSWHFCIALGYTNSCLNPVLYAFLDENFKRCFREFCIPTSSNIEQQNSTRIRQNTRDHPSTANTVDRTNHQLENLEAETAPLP
How it was run: as §2

Mouse urotensin (mUR2) = target: T9, Mouse urotensin (mUR2) (Mus musculus, UniProt Q8VIH9); test: Radioligand binding, mouse urotensin mUR2 membranes, FlashPlate, [125I]-Urotensin II; details: compound at 10 μM; [125I]-Urotensin II, FlashPlate
T9 construct: purchased Perkin Elmer Biosignal
T9 sequence (Q8VIH9 1-385): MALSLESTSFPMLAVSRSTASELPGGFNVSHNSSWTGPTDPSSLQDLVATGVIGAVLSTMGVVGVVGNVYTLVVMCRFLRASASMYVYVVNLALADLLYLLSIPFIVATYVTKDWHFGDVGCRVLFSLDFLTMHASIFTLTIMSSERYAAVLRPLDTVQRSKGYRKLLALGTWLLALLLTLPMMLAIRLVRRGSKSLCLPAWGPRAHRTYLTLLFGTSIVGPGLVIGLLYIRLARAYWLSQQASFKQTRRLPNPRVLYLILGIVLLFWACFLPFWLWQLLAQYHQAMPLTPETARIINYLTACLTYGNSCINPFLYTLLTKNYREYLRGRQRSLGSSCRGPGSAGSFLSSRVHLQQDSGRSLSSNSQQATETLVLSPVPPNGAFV
How it was run: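 Cloned mouse urotensin (mUR2) receptor membranes from Perkin Elmer Biosignal were immobilized in FlashPlate microplates using a proprietary coating. Each well got 19.5 μl buffer, then 0.5 μl of DMSO, reference ligand, or compound. Adding 5 μl of [125I]-Urotensin II, diluted to 5× final concentration in binding buffer, started binding. Plates were sealed with TopSeal-A and incubated 1 hour at room temperature in the dark. Wells were counted for 30 seconds each on a TopCount after a 60-second delay, and percentage inhibition was calculated.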

Human κ-Opioid (KOP) = target: T10, Human κ-Opioid (KOP) (Homo sapiens, UniProt P41145); test: Radioligand binding, human κ-opioid (KOP) membranes, filtration, [3H]-Diprenorphine; details: compound at 10 μM; [3H]-Diprenorphine, filtration
T10 construct: purchased Perkin Elmer Biosignal
T10 sequence (P41145 whole entry): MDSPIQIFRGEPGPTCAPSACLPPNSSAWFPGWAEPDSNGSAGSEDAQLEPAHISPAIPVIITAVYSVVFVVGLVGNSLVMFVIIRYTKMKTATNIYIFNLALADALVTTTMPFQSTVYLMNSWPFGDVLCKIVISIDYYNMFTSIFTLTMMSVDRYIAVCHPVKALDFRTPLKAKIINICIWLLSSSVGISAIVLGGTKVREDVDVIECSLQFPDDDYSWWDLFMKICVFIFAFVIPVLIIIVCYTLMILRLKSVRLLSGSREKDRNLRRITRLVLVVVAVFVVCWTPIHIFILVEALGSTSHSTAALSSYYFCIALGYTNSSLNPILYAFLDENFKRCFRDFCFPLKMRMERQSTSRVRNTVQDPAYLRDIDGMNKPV
How it was run: as §1

Human melanocortin (MC5) = target: T11, Human melanocortin (MC5) (Homo sapiens, UniProt P33032); test: Radioligand binding, human melanocortin MC5 membranes, FlashPlate, [125I]-NDP-αMSH; details: compound at 10 μM; [125I]-NDP-αMSH, FlashPlate
T11 construct: purchased Perkin Elmer Biosignal
T11 sequence (P33032 whole entry): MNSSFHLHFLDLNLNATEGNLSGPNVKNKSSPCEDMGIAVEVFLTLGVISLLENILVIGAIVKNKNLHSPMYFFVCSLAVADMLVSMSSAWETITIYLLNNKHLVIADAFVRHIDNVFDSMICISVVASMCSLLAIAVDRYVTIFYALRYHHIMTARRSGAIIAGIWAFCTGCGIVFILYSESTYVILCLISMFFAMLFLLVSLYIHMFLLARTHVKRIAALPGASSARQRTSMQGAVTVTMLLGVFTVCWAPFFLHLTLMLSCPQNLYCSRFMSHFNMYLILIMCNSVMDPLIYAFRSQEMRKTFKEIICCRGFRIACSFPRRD
How it was run: as §2

T1 sequence (P25103 whole entry): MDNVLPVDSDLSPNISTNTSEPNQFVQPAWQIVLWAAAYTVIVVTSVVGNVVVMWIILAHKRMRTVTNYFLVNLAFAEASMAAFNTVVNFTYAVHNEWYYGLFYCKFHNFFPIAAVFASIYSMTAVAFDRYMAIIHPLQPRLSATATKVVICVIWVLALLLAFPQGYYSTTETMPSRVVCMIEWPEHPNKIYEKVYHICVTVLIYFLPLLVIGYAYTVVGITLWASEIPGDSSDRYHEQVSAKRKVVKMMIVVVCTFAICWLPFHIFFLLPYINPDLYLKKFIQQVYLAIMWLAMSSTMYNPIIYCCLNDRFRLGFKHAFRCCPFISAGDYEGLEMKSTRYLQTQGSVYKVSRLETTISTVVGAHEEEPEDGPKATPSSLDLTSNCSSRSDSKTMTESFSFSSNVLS

Structure (SMILES)	A8: inhibition of radioligand binding (Human neurokinin (NK1))	A9: inhibition of radioligand binding [1]	A6: inhibition of radioligand binding [2]	A1: inhibition of radioligand binding (Human δ-opioid (DOP))	A10: inhibition of radioligand binding (Human opioid (ORL1))	A4: inhibition of radioligand binding (Human Melanocortin (MC4))	A3: inhibition of radioligand binding (Human Melanocortin (MC3))	A7: inhibition of radioligand binding (Human μ-opioid (MOP))	A11: inhibition of radioligand binding (Mouse urotensin (mUR2))	A2: inhibition of radioligand binding (Human κ-Opioid (KOP))	A5: inhibition of radioligand binding (Human melanocortin (MC5))
CSC1OC(COCc2ccc(-c3ccccc3)cc2)C(O)C(OCc2ccccc2)C1NC(=O)CCN (stereo not drawn) [compound 256]	+ (“+” indicates greater than 50% inhibition at 10 μM)	− (“−” indicates less than 50% inhibition at 10 μM)	− (“−” indicates less than 50% inhibition at 10 μM)	− (“−” indicates less than 50% inhibition at 10 μM)	− (“−” indicates less than 50% inhibition at 10 μM)	− (“−” indicates less than 50% inhibition at 10 μM)	− (“−” indicates less than 50% inhibition at 10 μM)	− (“−” indicates less than 50% inhibition at 10 μM)	− (“−” indicates less than 50% inhibition at 10 μM)	− (“−” indicates less than 50% inhibition at 10 μM)	− (“−” indicates less than 50% inhibition at 10 μM)
CSC1OC(COCc2ccc(-c3ccccc3)cc2)C(O)C(OCc2ccccc2)C1NC(=O)CCNC(=N)N (stereo not drawn) [compound 257]	+ (“+” indicates greater than 50% inhibition at 10 μM)	− (“−” indicates less than 50% inhibition at 10 μM)	− (“−” indicates less than 50% inhibition at 10 μM)	− (“−” indicates less than 50% inhibition at 10 μM)	− (“−” indicates less than 50% inhibition at 10 μM)	+ (“+” indicates greater than 50% inhibition at 10 μM)	− (“−” indicates less than 50% inhibition at 10 μM)	− (“−” indicates less than 50% inhibition at 10 μM)	− (“−” indicates less than 50% inhibition at 10 μM)	− (“−” indicates less than 50% inhibition at 10 μM)	− (“−” indicates less than 50% inhibition at 10 μM)
CSC1OC(COCc2ccc(-c3ccccc3)cc2)C(O)C(OCc2ccccc2)C1NC(=O)CCCN (stereo not drawn) [compound 258]	+ (“+” indicates greater than 50% inhibition at 10 μM)	− (“−” indicates less than 50% inhibition at 10 μM)	− (“−” indicates less than 50% inhibition at 10 μM)	− (“−” indicates less than 50% inhibition at 10 μM)	− (“−” indicates less than 50% inhibition at 10 μM)	− (“−” indicates less than 50% inhibition at 10 μM)	− (“−” indicates less than 50% inhibition at 10 μM)	− (“−” indicates less than 50% inhibition at 10 μM)	− (“−” indicates less than 50% inhibition at 10 μM)	− (“−” indicates less than 50% inhibition at 10 μM)	− (“−” indicates less than 50% inhibition at 10 μM)
CSC1OC(COCc2ccc(-c3ccccc3)cc2)C(O)C(OCc2ccccc2)C1NC(=O)CCCNC(=N)N (stereo not drawn) [compound 259]	+ (“+” indicates greater than 50% inhibition at 10 μM)	− (“−” indicates less than 50% inhibition at 10 μM)	− (“−” indicates less than 50% inhibition at 10 μM)	− (“−” indicates less than 50% inhibition at 10 μM)	− (“−” indicates less than 50% inhibition at 10 μM)	+ (“+” indicates greater than 50% inhibition at 10 μM)	− (“−” indicates less than 50% inhibition at 10 μM)	− (“−” indicates less than 50% inhibition at 10 μM)	− (“−” indicates less than 50% inhibition at 10 μM)	− (“−” indicates less than 50% inhibition at 10 μM)	− (“−” indicates less than 50% inhibition at 10 μM)
CSC1OC(COCc2ccc3ccccc3c2)C(O)C(OCc2ccccc2)C1NC(=O)CNC(=N)N (stereo not drawn) [compound 260]	− (“−” indicates less than 50% inhibition at 10 μM)	− (“−” indicates less than 50% inhibition at 10 μM)	− (“−” indicates less than 50% inhibition at 10 μM)	− (“−” indicates less than 50% inhibition at 10 μM)	− (“−” indicates less than 50% inhibition at 10 μM)	+ (“+” indicates greater than 50% inhibition at 10 μM)	− (“−” indicates less than 50% inhibition at 10 μM)	− (“−” indicates less than 50% inhibition at 10 μM)	− (“−” indicates less than 50% inhibition at 10 μM)	− (“−” indicates less than 50% inhibition at 10 μM)	− (“−” indicates less than 50% inhibition at 10 μM)
CSC1OC(COCc2ccc3ccccc3c2)C(O)C(OCc2ccccc2)C1NC(=O)CCN (stereo not drawn) [compound 261]	− (“−” indicates less than 50% inhibition at 10 μM)	− (“−” indicates less than 50% inhibition at 10 μM)	− (“−” indicates less than 50% inhibition at 10 μM)	− (“−” indicates less than 50% inhibition at 10 μM)	− (“−” indicates less than 50% inhibition at 10 μM)	− (“−” indicates less than 50% inhibition at 10 μM)	− (“−” indicates less than 50% inhibition at 10 μM)	− (“−” indicates less than 50% inhibition at 10 μM)	− (“−” indicates less than 50% inhibition at 10 μM)	− (“−” indicates less than 50% inhibition at 10 μM)	+ (“+” indicates greater than 50% inhibition at 10 μM)
